The values that follow come from patent publication US20250361546A1, “SCREENING METHODS FOR RNA-CONTROLLING COMPOUNDS” (Veritas In Silico Inc., priority 2018, published 2025).

Assay type in all cases: binding
For test [1], the system named is A-4-G_Cy5/BHQ2, MGA-N_FAM/BHQ1, FMNA_Alexa532/BHQ1, TAR21-G3_Texas Red/BHQ2. Kind of test: FRET probe Tm measurement, summary over four probes (Example 5). The settings on record: both single probes and mixed probes; 100 μM compound. As for the experimental part: (§1) Four FRET probes with fluorescent modifications corresponding to four wavelengths detectable by a measuring device (CFX384 Touch manufactured by Bio-Rad) were prepared. • FRET probe with Cy5 at the 5′ end and BHQ2 modification at the 3′ end
The final levels were 50 nM RNA, 20 mM phosphate buffer (pH 6 5), 50 mM KCl, 1% DMSO, 0.1 μg/μl Bovine Serum Albumin (Takara Bio) or 0.05%-0.1% Tween-20, or 0.05%-0.1% Triton X-100 per probe. In addition, 10 μl solutions were mixed to make 100 μM compound if small compounds were included and incubated at room temperature for 10 minutes. […]

Test [2] concerns TAR21-G3_Texas Red/BHQ2. Kind of test: FRET probe Tm measurement, single probe and 4-probe mixture (Example 5). The settings on record: 100 μM compound. As for the experimental part:
• FRET probe with Texas Red at the 5′ end and BHQ2 modification at the 3′ end
(§2) The final levels were 50 nM RNA, 20 mM phosphate buffer (pH 6 5), 50 mM KCl, 1% DMSO, 0.1 μg/μl Bovine Serum Albumin (Takara Bio) or 0.05%-0.1% Tween-20, or 0.05%-0.1% Triton X-100 per probe. In addition, 10 μl solutions were mixed to make 100 μM compound if small compounds were included and incubated at room temperature for 10 minutes.
(§3) The solutions were dispensed into a 384 well plate, and the plate was kept in a qPCR machine (manufactured by CFX 384 Touch (Bio-Rad Co., Ltd.) for 15 seconds after the temperature was raised to 95° C., which was rapidly cooled to 4° C. and kept for 2 minutes, and then kept at 25° C. for 5 minutes. Then, it was raised to over 95° C. about 40 minutes, and the fluorescence output was measured every 1° C. in 10 seconds. For numerical differentiation of the fluorescence output, a total of seven points from the measured temperature T to plus or minus 3° C. were approximated to a straight line by the least squares method, and the slope was defined as the slope (D1) at the point of the measured temperature T. Similarly, the value of D1 was again subjected to numerical differentiation in the same manner, and the slope (D2) at the point of the measured temperature T was obtained. Here, in parts where the D1 value was 10 or more, the measured temperature T_D1MAX was obtained with D1 at maximum. A total of seven points from this measured temperature T_D1MAX to plus and minus 3° C. were used to calculate the value of T_INF at Y=0 by setting X as T and Y as D2 when the seven points were actually approximated to the line by least squares, and this was set as the Tm value. In addition, the difference (Tm−Tm_NO) in the Tm value (Tm_NO) between wells containing the compound and wells without it was acquired as ΔTm.
(§4) This work was carried out for single-probe wells and four-probe wells, respectively, to obtain the Tm and ΔTm values shown in Table 6 below.

Test [3] relates to A-4-G_Cy5/BHQ2. The description is as above. The following applies: 100 μM compound. As for the experimental part: as §1, §2, §3, §4
The test system of test [4] is MGA-N_FAM/BHQ1. The description is as above. The following applies: 100 μM compound. As for the experimental part: • FRET probe with FAM at the 5′ end and BHQ1 modification at the 3′ end
as §2, §3, §4

For test [5], the system named is FMNA_Alexa532/BHQ1. The description is as above. The settings on record: 100 μM compound. How it is done: • FRET probe with HEX-equivalent Alexa 532 at the 5′ end and BHQ1 modification at the 3′ end
as §2, §3, §4

Test [6] has as its system A-4-G_Cy5/BHQ2 probe. Kind of test: FRET probe Tm measurement with single compounds and compound mixture (Example 6). The settings on record: for ΔTm: 100 μM compound per compound, 50 nM RNA. How it is done:
(§5) A-4-G_Cy5/BHQ2 probe and the Survivin-native+type probe modified with Cy5 at the 5′ end and BHQ2 at the 3′ end were prepared as shown in Examples 2 and 5.
(§6) The final levels were 50 nM RNA, 20 mM phosphate buffer (pH 6 5), 50 mM KCl, 1% DMSO, 0.1 μg/μl Bovine Serum Albumin (Takara Bio), or 0.05%-0.1% Tween-20, or 0.05%-0.1% Triton X-100. Further, if a low-molecular weight compound was included, 10 μl solutions were mixed to give 100 μM compound per compound and incubated at room temperature for 10 minutes.
as §3

Test [7] deals with Survivin-native+ type probe (Cy5/BHQ2). Described as above. The following applies: for ΔTm: 100 μM compound per compound, 50 nM RNA. How it is done:
as §5, §6, §3

[8] abbreviates: 4-probe mixture, Texas Red detection, 50 nM RNA per probe.
[9] abbreviates: 4-probe mixture, Cy5 detection, 50 nM RNA per probe.
The mark [10] stands for this setting: 4-probe mixture, FAM detection, 50 nM RNA per probe.
Where [11] appears, read: 4-probe mixture, HEX detection, 50 nM RNA per probe.

Molecules are shown by their SMILES.

For the compound `O=C(O)c1cn(C2CC2)c2cc(N3CCNCC3)c(F)cc2c1=O` [CPFX, ciprofloxacin], the “Tm increase (in words)” value in test [1] is “Tm increase was obtained only at wavelengths corresponding to A-4-G_Cy5/BHQ2”. Besides, the “Tm (° C.) with compound” value in test [2] (setting [8]) came out at 85.75 °C; in test [2] (Single probe, 50 nM RNA), 85.80 °C; in test [3] (setting [9]), 68.96 °C; in test [3] (Single probe, 50 nM RNA), 68.78 °C; in test [4] (setting [10]), 74.22 °C; in test [4] (Single probe, 50 nM RNA) it was 74.03 °C. For the same compound, the “Tm (° C.) with compound” value in test [5] (setting [11]) amounted to 78.07 °C; in test [5] (Single probe, 50 nM RNA) it was 78.03 °C. Also, the “ΔTm (° C.)” value in test [2] (setting [8]) is −0.02 °C; in test [2] (Single probe, 50 nM RNA) it was 0.07 °C; in test [3] (setting [9]), 1.46 °C; in test [3] (Single probe, 50 nM RNA), 1.41 °C; in test [4] (setting [10]), 0.11 °C; in test [4] (Single probe, 50 nM RNA), 0.33 °C. The “ΔTm (° C.)” value in test [5] (setting [11]) was −0.02 °C; in test [5] (Single probe, 50 nM RNA) it was 0.09 °C.

For `CC1CCc2c(N3CCC(O)CC3)c(F)cc3c(=O)c(C(=O)O)cn1c23` (centres unmarked) [NDFX, nadifloxacin], the “change of Tm value (in words)” value in test [6] and in test [7] was “does not cause changes in the Tm value” throughout. The ΔTm in test [6] (Table 7, A-4-G) came to 0.15; in test [6] (rounded), 0.2 °C; in test [7] (Table 7, SV-NL) it was 0.01; in test [7] (rounded) it was 0.0 °C.
